Here are results for 39 molecules from ChEMBL document CHEMBL1135234, “2-Arylindoles as gonadotropin releasing hormone (GnRH) antagonists: optimization of the tryptamine side chain” (Bioorg Med Chem Lett, 2002).

pIC50: −log10 of the molar value. Where “and” joins values, the source holds several entries; their conditions need not be identical. Identical values can stand only once.

Series [1] has as its target T1, Gonadotropin-releasing hormone receptor (Homo sapiens, UniProt P30968).
T1 sequence (P30968 whole entry): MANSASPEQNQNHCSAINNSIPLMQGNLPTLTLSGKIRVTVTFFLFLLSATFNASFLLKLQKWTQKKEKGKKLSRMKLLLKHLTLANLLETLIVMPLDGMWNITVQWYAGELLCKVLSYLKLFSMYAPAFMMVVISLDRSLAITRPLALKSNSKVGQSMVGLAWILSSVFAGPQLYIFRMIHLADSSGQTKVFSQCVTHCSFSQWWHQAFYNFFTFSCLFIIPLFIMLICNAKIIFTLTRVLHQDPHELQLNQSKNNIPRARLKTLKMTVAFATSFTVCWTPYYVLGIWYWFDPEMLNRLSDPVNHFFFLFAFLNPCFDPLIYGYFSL
The series is described as follows: Inhibition of [125I]buserelin binding to human pituitary gonadotropin-releasing hormone receptor.

Series [2] concerns the target T1, Gonadotropin-releasing hormone receptor. As to the kind of experiment: Inhibition of gonadotropin-releasing hormone receptor-stimulated [3H]inositol phosphate hydrolysis. Format: functional.
Series [3] in a line: (§1) Oral bioavailability in dog. The settings on record: in vivo. Format: ADME, organism-based, Canis lupus familiaris.
For series [4], the target named is T1, Gonadotropin-releasing hormone receptor. The series is described as follows: Compound was evaluated for the inhibition of Gonadotropin-releasing hormone receptor-stimulated [3H]inositol phosphate hydrolysis using functional assay.
In series [5] the target is T2, Cytochrome P450 3A4 (Homo sapiens, UniProt P08684). As to the kind of experiment: Inhibition of cytochrome P450 3A4 enzyme.
T2 sequence (P08684 whole entry): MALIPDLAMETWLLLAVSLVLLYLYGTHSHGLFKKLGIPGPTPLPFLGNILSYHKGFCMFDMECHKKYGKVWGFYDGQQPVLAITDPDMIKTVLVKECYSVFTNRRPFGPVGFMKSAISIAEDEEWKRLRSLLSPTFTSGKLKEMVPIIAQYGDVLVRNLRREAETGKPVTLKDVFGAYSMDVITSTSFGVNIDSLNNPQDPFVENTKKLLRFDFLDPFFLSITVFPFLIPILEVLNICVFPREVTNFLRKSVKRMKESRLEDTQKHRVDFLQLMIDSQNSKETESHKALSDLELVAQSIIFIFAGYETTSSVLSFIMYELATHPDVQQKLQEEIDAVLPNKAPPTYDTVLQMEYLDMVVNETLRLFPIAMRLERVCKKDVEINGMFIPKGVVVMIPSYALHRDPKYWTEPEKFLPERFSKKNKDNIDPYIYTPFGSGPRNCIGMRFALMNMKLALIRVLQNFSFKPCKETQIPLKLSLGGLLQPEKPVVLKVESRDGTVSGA
The nature of series [6]: Half life in dog was determined. The conditions noted are these: in vivo. Format: ADME, organism-based, Canis lupus familiaris.
The nature of series [7]: Plasma clearance in dog was determined. The class given is ADME, organism-based, Canis lupus familiaris. The conditions noted are these: read-out: Clp.
Series [8] concerns the target T2, Cytochrome P450 3A4. As to the kind of experiment: Inhibition of cytochrome P450 3A4 enzyme; Range 1-2 uM. Format: ADME.
In series [9] the test system is Canis familiaris. The series is described as §1. The class given is ADME, organism-based, Canis lupus familiaris. The settings on record: in vivo.
The subject of series [10] is Canis familiaris. The series is described as follows: Compound was tested for the oral bioavailability in dog; No availability. Format: ADME, organism-based, Canis lupus familiaris. The conditions noted are these: in vivo.

Turning to `Cc1cc(C)cc(-c2[nH]c3ccc(C(C)(C)C(=O)N4CC5CCC4CC5)cc3c2[C@H](C)CNCCc2cnc3nn[nH]c3c2)c1`, the figures for the negative-log IC50 (pIC50) in series [1] and in series [2] were 9.22 and 8.55, respectively.
In series [3], `Cc1cc(C)cc(-c2[nH]c3ccc(C(C)(C)C(=O)N4CC5CCC4CC5)cc3c2[C@H](C)CNCCc2ccc3[nH]c(=O)[nH]c3c2)c1` yielded a bioavailability of 5%. Besides, the negative-log IC50 (pIC50) was 9.22 in series [1] and 8.70 in series [4].
Regarding `Cc1cc(C)cc(-c2[nH]c3ccc(C(C)(C)C(=O)N4C5CCC4CC5)cc3c2[C@H](C)CNCCc2c[nH]c3ncnc-3c2)c1`, the pIC50 in series [1] is 9.40; in [2], 8.60.
For the molecule `Cc1cc(C)cc(-c2[nH]c3ccc(C(C)(C)C(=O)N4C5CCC4CC5)cc3c2[C@H](C)CNCCCCc2cnc3nc[nH]c3c2)c1`, the negative-log IC50 (pIC50) in series [1] was 9.40; in series [2] it was 8.34.
As for `Cc1cc(C)cc(-c2[nH]c3ccc(C(C)(C)C(=O)N4C5CCC4CC5)cc3c2[C@H](C)CNCCCc2cnc3nccnc3c2)c1`, the negative-log IC50 (pIC50) is 9.10 in [1] and 7.96 in [2].
On to `Cc1cc(C)cc(-c2[nH]c3ccc(C(C)(C)C(=O)N4C5CCC4CC5)cc3c2[C@H](C)CNCCCc2cccc3ncccc23)c1`, for which the pIC50 is 8.62 in [1] and 6.88 in series [2].
Turning to `COC(=O)c1nc2ccc(CCNC[C@@H](C)c3c(-c4cc(C)cc(C)c4)[nH]c4ccc(C(C)(C)C(=O)N5CC6CCC5CC6)cc34)cc2[nH]1`, the values for the pIC50 in series [1] and in series [2] were 9.52 and 8.12, respectively.
With `Cc1cc(C)cc(-c2[nH]c3ccc(C(C)(C)C(=O)N4C5CCC4CC5)cc3c2[C@H](C)CNCCCCc2ccnc3nc(C)ccc23)c1`, the negative-log IC50 (pIC50) was 9.22 in series [1] and 8.08 in series [2].
For `Cc1cc(C)cc(-c2[nH]c3ccc(C(C)(C)C(=O)N4CC5CCC4CC5)cc3c2[C@H](C)CNCCc2ccc3nc[nH]c3c2)c1`, the values for the pIC50 in [5], in series [1] and in series [2] were 7.00, 9.52 and 8.35, respectively. This molecule also had a bioavailability in [3] of 63%.
Take `Cc1cc(C)cc(-c2[nH]c3ccc(C(C)(C)C(=O)N4C5CCC4CC5)cc3c2[C@H](C)CNCCc2ccc3nc[nH]c3c2)c1`: the pIC50 was 9.40 in series [1] and 8.59 in series [2].
`Cc1cc(C)cc(-c2[nH]c3ccc(C(C)(C)C(=O)N4CC5CCC4CC5)cc3c2[C@H](C)CNCCc2ccc3nn[nH]c3c2)c1` showed a bioavailability in series [3] of 20%. Also, the half-life in series [6] was 7.2 h. For the same molecule, the pIC50 was 9.52 in series [1] and 8.60 in [2]. In addition, the clearance in series [7] was determined as 5 mL/min/kg.
For the molecule `Cc1cc(C)cc(-c2[nH]c3ccc(C(C)(C)C(=O)N4C5CCC4CC5)cc3c2[C@H](C)CNCCCCc2cccc3ncccc23)c1`, the negative-log IC50 (pIC50) in [1] is 8.72; in [2], 7.33.
Take `Cc1cc(C)cc(-c2[nH]c3ccc(C(C)(C)C(=O)N4C5CCC4CC5)cc3c2[C@H](C)CNCCCc2ccc3cnccc3c2)c1`: the pIC50 is 9.15 in series [1] and 8.34 in [2].
The like results for `Cc1cc(C)cc(-c2[nH]c3ccc(C(C)(C)C(=O)N4C5CCC4CC5)cc3c2[C@H](C)CNCCCc2ccc3ncccc3c2)c1` were, in that order, 8.52 and 7.75.
The like results for `Cc1cc(C)cc(-c2[nH]c3ccc(C(C)(C)C(=O)N4C5CCC4CC5)cc3c2[C@H](C)CNCCCc2cncc3ccccc23)c1` were, in that order, 8.68 and 8.12.
On to `Cc1cc(C)cc(-c2[nH]c3ccc(C(C)(C)C(=O)N4CC5CCC4CC5)cc3c2[C@H](C)CNCCc2ccc3[nH]c(C(F)(F)F)nc3c2)c1`, for which the pIC50 in series [5] was under 5.00; in series [1] it was 9.05; in series [2], 7.00.
As to `Cc1cc(C)cc(-c2[nH]c3ccc(C(C)(C)C(=O)N4C5CCC4CC5)cc3c2[C@H](C)CNCCc2ccc3ocnc3c2)c1`, the negative-log IC50 (pIC50) in series [1] was 9.52; in series [2] it was 8.05.
For `Cc1cc(C)cc(-c2[nH]c3ccc(C(C)(C)C(=O)N4CC5CCC4CC5)cc3c2[C@H](C)CNCCc2ccc3[nH]c(=O)[nH]c3c2F)c1`, the negative-log IC50 (pIC50) is 9.15 in [1] and 7.55 in [2].
Take `Cc1cc(C)cc(-c2[nH]c3ccc(C(C)(C)C(=O)N4CC5CCC4CC5)cc3c2[C@H](C)CNCCc2ccc3nsnc3c2)c1`: the results for the pIC50 in series [8], in [1] and in [2] were 6.00, 9.30 and 7.94, respectively.
In the case of `Cc1cc(C)cc(-c2[nH]c3ccc(C(C)(C)C(=O)N4CC5CCC4CC5)cc3c2[C@H](C)CNCc2ccc3nc[nH]c3c2)c1`, the pIC50 in series [1] is 7.78; in [2] it was 7.36.
As to `Cc1cc(C)cc(-c2[nH]c3ccc(C(C)(C)C(=O)N4C5CCC4CC5)cc3c2[C@H](C)CNCCc2cccc3cnccc23)c1`, the pIC50 in [8] is 6.00; in series [1], 9.22; in series [2] it was 7.46. Besides, the bioavailability in [3] turned out to be 10%. Besides, the half-life in series [6] was 1.9 h. The clearance in series [7] was determined as 5.8 mL/min/kg.
In series [3], `Cc1cc(C)cc(-c2[nH]c3ccc(C(C)(C)C(=O)N4C5CCC4CC5)cc3c2[C@H](C)CNCCCCc2cccc3cnccc23)c1` came in with a bioavailability of 4%. The molecule further showed a half-life in series [6] of 1 h. Also, the pIC50 was 8.82 in series [1] and 8.17 in series [2]. For the same molecule, in series [7], the clearance was determined as 49.2 mL/min/kg.
The like results for `Cc1cc(C)cc(-c2[nH]c3ccc(C(C)(C)C(=O)N4C5CCC4CC5)cc3c2[C@H](C)CNCCc2ccc3[nH]nnc3c2)c1` were, in that order, 37%, 2.7 h, 9.22, 8.70 and 37 mL/min/kg.
`Cc1cc(C)cc(-c2[nH]c3ccc(C(C)(C)C(=O)N4C5CCC4CC5)cc3c2[C@H](C)CNCCc2ccc3ncoc3c2)c1`: the pIC50 in [8] is 6.00; in [1] it was 9.40; in series [2] it was 8.70.
`Cc1cc(C)cc(-c2[nH]c3ccc(C(C)(C)C(=O)N4C5CCC4CC5)cc3c2[C@H](C)CNCCCCc2ccncc2)c1`: the F in series [9] is 23% and 11%. In series [6], this molecule showed a half-life of 9.5 h. Moreover, the clearance in series [7] was 26.5 mL/min/kg.
Turning to `Cc1cc(C)cc(-c2[nH]c3ccc(C(C)(C)C(=O)N4C5CCC4CC5)cc3c2[C@H](C)CNCCc2ccc3[nH]c(C)nc3c2)c1`, the negative-log IC50 (pIC50) in series [5] is 5.30; in series [1], 9.40; in series [2], 7.89.
With `Cc1cc(C)cc(-c2[nH]c3ccc(C(C)(C)C(=O)N4CC5CCC4CC5)cc3c2[C@H](C)CNCCc2ccc3[nH]c(CO)nc3c2)c1`, the values for the pIC50 in [1] and in series [2] were 9.15 and 8.30, respectively.
As for `Cc1cc(C)cc(-c2[nH]c3ccc(C(C)(C)C(=O)N4CC5CCC4CC5)cc3c2[C@H](C)CNCCc2ccc3nc(C(=O)O)[nH]c3c2)c1`, the pIC50 in series [1] was 9.40; in series [2], 8.19. The F result in series [10] is given as “Not Active”. In addition, the clearance in series [7] turned out to be 24.6 mL/min/kg.
Regarding `Cc1cc(C)cc(-c2[nH]c3ccc(C(C)(C)C(=O)N4C5CCC4CC5)cc3c2[C@H](C)CNCCCc2ccnc3nc(C)ccc23)c1`, the negative logarithm of the IC50 (pIC50) is 8.96 in series [1] and 7.79 in series [2].
With `Cc1cc(C)cc(-c2[nH]c3ccc(C(C)(C)C(=O)N4C5CCC4CC5)cc3c2[C@H](C)CNCCCc2cccc3cnccc23)c1`, the pIC50 in series [1] is 9.05; in [2], 8.30.
`Cc1cc(C)cc(-c2[nH]c3ccc(C(C)(C)C(=O)N4C5CCC4CC5)cc3c2[C@H](C)CNCCCCc2ccc3cnccc3c2)c1`: the negative logarithm of the IC50 (pIC50) is 8.44 in [1] and 8.24 in series [2].
For the molecule `Cc1cc(C)cc(-c2[nH]c3ccc(C(C)(C)C(=O)N4CC5CCC4CC5)cc3c2[C@H](C)CNCCc2c[nH]c3ncnc-3c2)c1`, the negative logarithm of the IC50 (pIC50) in series [5] is 5.40; in series [1], 9.52; in series [2], 8.35. Further, in series [3], the bioavailability came to 16%.
In the case of `Cc1cc(C)cc(-c2[nH]c3ccc(C(C)(C)C(=O)N4C5CCC4CC5)cc3c2[C@H](C)CNCCCCc2ccc3ncccc3c2)c1`, the negative logarithm of the IC50 (pIC50) in series [1] is 8.96; in series [2] it was 7.94.
Take `Cc1cc(C)cc(-c2[nH]c3ccc(C(C)(C)C(=O)N4CC5CCC4CC5)cc3c2[C@H](C)CNCCc2ccc3ncoc3c2)c1`: the values for the negative-log IC50 (pIC50) in [1] and in series [2] were 9.22 and 8.41, respectively.
On to `Cc1cc(C)cc(-c2[nH]c3ccc(C(C)(C)C(=O)N4C5CCC4CC5)cc3c2[C@H](C)CNCCCCc2cnc3nccnc3c2)c1`, for which the negative logarithm of the IC50 (pIC50) was 9.40 in series [1] and 8.10 in series [2].
The like results for `Cc1cc(C)cc(-c2[nH]c3ccc(C(C)(C)C(=O)N4CC5CCC4CC5)cc3c2[C@H](C)CNCCc2ccc3[nH]ncc3c2)c1` were, in that order, 8.96 and 8.82.
Turning to `Cc1cc(C)cc(-c2[nH]c3ccc(C(C)(C)C(=O)N4C5CCC4CC5)cc3c2[C@H](C)CNCCCCc2cncc3ccccc23)c1`, the pIC50 in series [1] is 8.68; in series [2], 7.99.
In the case of `Cc1cc(C)cc(-c2[nH]c3ccc(C(C)(C)C(=O)N4C5CCC4CC5)cc3c2[C@H](C)CNCc2cccc3ncccc23)c1` (stereo in doubt; 27a), the pIC50 in series [1] was 7.56; in [2] it was 6.38.
Take `Cc1cc(C)cc(-c2[nH]c3ccc(C(C)(C)C(=O)N4C5CCC4CC5)cc3c2[C@H](C)CNCc2cccc3ncccc23)c1` (stereo in doubt; 27b): the negative logarithm of the IC50 (pIC50) in series [1] was 7.82; in series [2], 6.50.

For orientation: pIC50 means −log10 of the IC50, conventionally taken in molar units. The bioavailability is dose-corrected exposure relative to a reference, in per cent. A word on the half-life: it is how long it takes for the measured level to halve. A low value points to rapid decline.
